Reference: publication PMC11123961, “Design, Synthesis, and Biological Evaluation of the Quorum-Sensing Inhibitors of Pseudomonas aeruginosa PAO1” (Molecules, 2024)

Tests used:
[1] = system: P. aeruginosa PAO1 swarming motility; test: Swarming motility analysis; type: cell-based, Pseudomonas aeruginosa; settings: 40 μM, 81.25 μM and 162.5 μM, swarming agar plates
Experimental: 3.2.6. Swarming Motility Analysis
After being inoculated into LB medium, P. aeruginosa PAO1 was cultivated at 37 °C and 150 rpm until OD600 = 1.0. Then, 1 μL of P. aeruginosa PAO1 bacterial medium was inoculated into the center of swarming solid medium (0.8% nutrient broth (BD), 0.5% glucose, 0.3% agar (BD)) and cultured at 30 °C for 16 h. Then, the colonies of the swarming plate were picked and added to the center of the cooled swarming solid medium (0.8% nutrient broth (BD), 0.5% glucose, 0.5% agar (BD)), which had been supplemented with compounds and cultured at 30 °C for 24 h.

P. aeruginosa PAO1 = test: Growth activity of PAO1 (OD600 growth curve); type: cell-based, Pseudomonas aeruginosa; settings: 162.50, 81.25 and 40.00 μM, OD600 over 24 h
Experimental: 3.2.4. The Growth of the Compound of PAO1 QS Activity Analysis
P. aeruginosa PAO1 in log phase was diluted to OD600 = 0.05 in fresh LB medium. Then, 98 μL of diluted bacterial solution and 2 μL of Y-31 solution were added to the 96-well plate. The final concentration of Y-31 in each well was 162.50 μM, 81.25 μM, and 40.00 μM, respectively. The pores without the compound Y-31 were used as blank controls. The cells were incubated in an incubator at 37 °C for 24 h, and OD600 was measured at 0 h, 2 h, 4 h, 6 h, 8 h, 10 h, 12 h, and 24 h, respectively.

[2] = system: wildtype Caenorhabditis elegans N2 infected with P. aeruginosa PAO1; test: C. elegans survival assay; type: in vivo
From the text: 3.2.7. C. elegans Survival Assay
The negative control was the PGS agar plate coated with E. Coli OP50. Next, 50 wildtype C. elegans N2 strain-synchronized nematodes (L4 stage) were chosen and placed onto the plates. […] When the nematodes in the study were immobile, they were deemed dead. The number of nematodes that survived was tabulated to generate a survival curve.

C. violaceum CV026 QS = test: Half-maximal inhibitory concentration against C. violaceum CV026 QS (suppression of violacein production); type: cell-based; settings: Chromobacterium violaceum; C6-HSL-induced violacein production, 12 h; mean ± SD of three independent tests; read-out: IC50, anti-CV026 QS activity
From the text: In the exploration of the QS inhibitions, C. violaceum CV026, a mini-T5 mutant of C. violaceum ATCC31532, is frequently employed as a biosensor strain. Because C. violaceum CV026 lacks the CviI gene, which directs the synthesis of AHLs, it is unable to manufacture violacein on its own. The violacein reaction can be induced in C. violaceum CV026 by adding exogenous C6-HSL [27]. As a result, the violacein reaction in C. violaceum CV026 can be used to assess the compounds’ suppression of QS, as used in this investigation.
3.2.2. The Half-Maximal Inhibitory Concentration (IC50) of Compounds against C. violaceum CV026 QS [36]
Subsequently, the log phase of C. violaceum CV026 was placed in a 12-well plate (2 mL/well) after being diluted 10-fold with fresh LB medium. The experimental group received 15 μL of the diluted inducer C6-HSL (0.125 mM), and 8 μL of each dilution gradient compound was added to each well, while the positive control group received 8 μL of C10-HSL, and the blank control group received 8 μL of LB medium. The plates were incubated at 30 °C and 130 rpm for 12 h. After centrifuging 1 mL of the culture for 10 min at 11,255 g, the supernatant was discarded. After dissolving the violacein with 500 μL of DMSO, the mixture was centrifuged once more at 11,255 g for 10 min. In order to measure the absorbance at 585 nm, 200 μL of the upper pigment was added to a 96-well plate. The IC50 was calculated using GraphPad Prism 5 according to the formula (absorbance at 585 nm of the test concentration/the absorbance of the control at 585 nm × 100%).

[3] = system: P. aeruginosa PAO1 pyocyanin; test: Pyocyanin quantification assay; type: cell-based, Pseudomonas aeruginosa
Experimental: The method used to perform the pyocyanin quantification assay was previously reported. In short, P. aeruginosa PAO1 was cultivated in LB medium to reach the logarithmic growth phase at 37 °C and 150 rpm. Following this, the medium (2% peptone, 1% K2SO4, 0.3% MgCl2) was diluted 10 times. A 5 mL bacterial culture containing and excluding the compound (162.5 μM, 81.25 μM, and 20 μM) was incubated for 16 h at 37 °C at 150 rpm. The culture was centrifuged at 1665 g for 10 min in order to extract pyocyanin. The supernatant was then collected and extracted using 3 mL of chloroform. The upper aqueous phase was then collected via centrifugation at 1665 g for 10 min after 1 mL of 0.2 M HCl was combined with the chloroform layer. Absorbance was measured at 520 nm. The pyocyanin inhibition rate was calculated as follows = (OD520 blank − OD520 sample)/OD520 blank × 100%.

## O=C(CCCOc1ccc(I)cc1)NN1CCCOC1=O [Y-31]
[1]
  Swarming motility compared to the control group: significantly reduced swarming motility
P. aeruginosa PAO1
  Inhibition of the growth activity of PAO1: no significant inhibition
[2]; Y-31 162.5 μM + Tob 0.25 μg/mL
  Average survival rate of infected nematodes, Y-31 combined with Tob compared with Y-31 or Tob alone: significantly improved
[2]; after 48 h, agent alone: Y-31 162.5 μM, Tob 0.25 μg/mL
  Improvement of the survival rate of infected nematodes (average): 9.33%
C. violaceum CV026 QS
  IC50: 91.5 ± 3.35 µM
[3]; 162.5 μM
  Inhibition rate of pyocyanin: 22.5%
[3]; Pseudomonas aeruginosa, PAO1, read-out: Inhibition rate of pyocyanin, 40 μM
  inhibition at 40 µM: 10%
[3]; Pseudomonas aeruginosa, PAO1, read-out: Inhibition rate of pyocyanin, 81.5 μM
  inhibition at 81.5 µM: 17.1%
[3]; Pseudomonas aeruginosa, PAO1, read-out: Inhibition rate of pyocyanin, 162.5 μM
  inhibition at 162.5 µM: 22.5%
